Patent EP4545547B1, “INSECT NEUROPEPTIDES” (Solasta Bio Limited, priority 2023, dated 2025)
Where a SMILES comes first, the peptide text is derived from it.

Key:
Plutella xylostella [1] = test: Leaf dip assay 2 (based on IRAC susceptibility test method 019); assay type: in vivo; conditions: unformulated peptide at 1x10^-4 M; leaf disc on 1% agar; after 96 hours; Figure 6
Description: The assay was carried out based on IRAC susceptibility test method 019 (https://irac-online.org/methods/aphids-adultnymphs/). Fill a small 4 cm wide 3 cm high dish with a 1% agar treatment solution of the active chemical or control (ensuring 1 cm gap between the agar and the lid) and leave to set. Dip a 2.5 cm leaf disc into 3 ml of treatment solution allowing the treatment to coat the leaf. Leave the disc to dry for 1 hour and place onto the set agar. Place insects (Plutella xylostella) onto each of the leaf discs. Each unit is sealed with a close-fitting, ventilated lid. Place the agar dishes in a small plastic tray lined with moist tissue paper and ensure the water trays in the bottom of the incubator are filled with clean water and place within the incubator. An assessment of mortality is made at 72, 96 and 120 hours. Leaf dip assays were performed with SB-P-81, and compared to a negative control vehicle and a current commercial insecticide Chlorantraniliprole. The activity of SB-P-81 is shown in Figure 6; SB-P-81 has good activity whilst being eco-friendly and targeted to specific pests unlike broad spectrum chemical insecticides such as Chlorantraniliprole.

Plutella xylostella [2] = test: Leaf dip assay 1 (based on IRAC susceptibility test method 018, performed by FERA); assay type: in vivo; conditions: unformulated peptide at 2x10^-4 M; Chinese cabbage leaf discs dipped 10 seconds; larvae (2nd/3rd instar); mortality assessed after 120 hours; Figure 4
Description: The assay was carried out based on IRAC susceptibility test method 018 by a contract research organization, FERA Science Ltd. Test insects Larvae (2nd/3rd instar) were sourced from a laboratory culture of P. xylostella. The culture has been maintained in a controlled environment (CE) room with conditions of 25 °C and 16:8 lighting regime on Chinese cabbage plants. Chinese cabbage leaves were used in the bioassays. A CE room set at 25 °C and 60% r.h. with a 16 hour light: 8 hours dark lighting regime, was used. Leaf discs (approximately 35mm in diameter) were cut from fully expanded Chinese cabbage leaves. Each leaf disc was dipped in a separate peptide solution for 10 seconds with gentle agitation and placed on a damp filter paper (underside surface uppermost). There were ten replicates for each treatment and control, with five leaf discs per replicate. The treated discs were then put onto damp filter paper in the base of a Petri dishes (90 mm in diameter, 15 mm high) (underside surface uppermost). Five larvae were then transferred onto the treated leaf discs. The dishes were placed in the CE room and mortality was assessed after 120 hours. Leaf dip assays were performed with SB-P-81, and compared to a negative control vehicle and a current commercial insecticide Gazelle SG (shown as the active Acetamiprid). […]

CSCC[C@H](NC(=O)[C@H](CO)NC(=O)CNC(=O)CN)C(=O)N[C@H](C(=O)N[C@@H](Cc1ccccc1)C(=O)N[C@@H](CO)C(=O)N1CCC[C@H]1C(=O)N[C@@H](CCCNC(=N)N)C(=O)N[C@@H](CC(C)C)C(N)=O)[C@@H](C)O [SB-P-81, [Hy]-GGSMTFSPRL-[NH2]] (H-GGSMTFSPRL-NH2)
activity against Plutella xylostella (mortality) (Plutella xylostella [1]): good activity | activity against Plutella xylostella (mortality) (Plutella xylostella [2]): good activity
